According to patent US4921850A, “3-propenylcephem derivative” (Eisai Co., Ltd., priority 1986, dated 1990):
Values after ≈ are worked out from the molar mass of the structure shown. Read-outs that look alike come from different tables or passages of the source.

Key:
Test in all cases: Anti-bacterial activity (MIC), agar dilution
Type in all cases: cell-based
[1] = system: Escher. coli NIHJ; details: Escher. coli NIHJ, agar dilution, about 10^6 CFU/ml, 18 hours, 37° C.
Protocol: (§1) MIC (μg/ml) were determined by an agar dilution method [Chemotherapy (Japan), 29, 76-79, 1981]. Overnight cultures of the bacterial strains in Mueller-Hinton broth were diluted to final concentration of about 10^6 CFU/ml, and 5 μl of each bacterial suspension was spotted onto Mueller-Hinton agar plates that contained twofold serial dilutions of antibiotics. MICs were measured after incubation for 18 hours at 37° C.

[2] = system: Kleb. pneumoniae EK-6; details: Kleb. pneumoniae EK-6, agar dilution, about 10^6 CFU/ml, 18 hours, 37° C.
Protocol: as §1

[3] = system: Morganella morganii EP-14; details: about 10^6 CFU/ml, 37° C.
Protocol: as §1

[4] = system: Pseud. aeruginosa EP-01
Protocol: as §1

[5] = system: Ser. marcescens ES-75
Protocol: as §1

[6] = system: Staph. aureus 209-P
Protocol: as §1

[7] = Escherichia coli, 18 h, read-out: MIC
[8] = Klebsiella pneumoniae, EK6, 18 h, read-out: MIC
[9] = Morganella morganii, EP14, 18 h, read-out: MIC
[10] = Pseudomonas aeruginosa, EP01, 18 h, Pseud. aeruginosa EP-01, agar dilution, about 10^6 CFU/ml, 18 hours, 37° C., read-out: MIC
[11] = Serratia marcescens, ES75, 18 h, Ser. marcescens ES-75, agar dilution, about 10^6 CFU/ml, 18 hours, 37° C., read-out: MIC
[12] = Staphylococcus aureus, 209P, 18 h, Staph. aureus 209-P, agar dilution, about 10^6 CFU/ml, 18 hours, 37° C., read-out: MIC
[13] = Ser. marcescens ES-75, agar dilution, about 10^6 CFU/ml, 18 hours, 37° C.
[14] = Staph. aureus 209-P, agar dilution, about 10^6 CFU/ml, 18 hours, 37° C.

SMILES	MIC [1, 7]	MIC [2, 8]	MIC [3, 9]	MIC [4, 10]	MIC [5, 11]	MIC [6, 12]	MIC [2]	MIC ([3]; 18 hours)	MIC [5, 13]	MIC [6, 14]	MIC [1]	MIC ([4]; Pseud. aeruginosa EP-01, agar dilution, about 10^6 CFU/ml, 18 hours, 37° C.)	MIC ([4]; Pseudomonas aeruginosa, EP01, 18 h)	MIC ([5]; Serratia marcescens, ES75, 18 h)	MIC ([6]; Staphylococcus aureus, 209P, 18 h)
C[N+](C)(C/C=C/C1=C(C(=O)[O-])N2C(=O)[C@@H](NC(=O)/C(=N\OCF)c3nsc(N)n3)[C@H]2SC1)[C@@H](CO)C(N)=O [Example 62]	≤ 0.025 µg/mL	≤ 0.025 µg/mL	≤ 0.025 µg/mL	0.4 µg/mL (≈ 0.699 µM)	≤ 0.025 µg/mL	0.2 µg/mL (≈ 0.349 µM)	–	–	–	–	–	–	–	–	–
CN(C)C(=O)CC[N+](C)(C)C/C=C/C1=C(C(=O)[O-])N2C(=O)[C@@H](NC(=O)/C(=N\OCF)c3nsc(N)n3)[C@H]2SC1 [Example 98]	0.05 µg/mL (≈ 0.0855 µM)	0.05 µg/mL (≈ 0.0855 µM)	≤ 0.025 µg/mL	3.13 µg/mL (≈ 5.35 µM)	0.05 µg/mL (≈ 0.0855 µM)	0.4 µg/mL (≈ 0.684 µM)	–	–	–	–	–	–	–	–	–
C[N+]1(C/C=C/C2=C(C(=O)[O-])N3C(=O)[C@@H](NC(=O)/C(=N\OCF)c4nsc(N)n4)[C@H]3SC2)CCCN(C(N)=O)CC1 (stereo partly drawn) [Example 94]	≤ 0.025 µg/mL	≤ 0.025 µg/mL	≤ 0.025 µg/mL	0.8 µg/mL (≈ 1.34 µM)	≤ 0.025 µg/mL	0.2 µg/mL (≈ 0.335 µM)	–	–	–	–	–	–	–	–	–
N#CCO/N=C(\C(=O)N[C@@H]1C(=O)N2C(C(=O)[O-])=C(/C=C/C[N+]34CCN(CC3)CC4)CS[C@H]12)c1nsc(N)n1 [Example 157, 7β-[2-(5-Amino-1,2,4-thiadiazol-3-yl)-(Z)-2-cyanomethoxyiminoacetoamido]-3-[(E)-3-(1,4-diazabicyclo[2,2,2]octane-1-io)-1-propen-1-yl]-3-cephem-4-carboxylate]	0.1 µg/mL (≈ 0.179 µM)	0.1 µg/mL (≈ 0.179 µM)	0.1 µg/mL (≈ 0.179 µM)	1.56 µg/mL (≈ 2.79 µM)	0.2 µg/mL (≈ 0.357 µM)	0.4 µg/mL (≈ 0.715 µM)	–	–	–	–	–	–	–	–	–
NCC[N+]1(C/C=C/C2=C(C(=O)[O-])N3C(=O)[C@@H](NC(=O)/C(=N\OCF)c4nsc(N)n4)[C@H]3SC2)CCCC1 [Example 22]	0.05 µg/mL (≈ 0.0902 µM)	0.05 µg/mL (≈ 0.0902 µM)	0.05 µg/mL (≈ 0.0902 µM)	3.13 µg/mL (≈ 5.64 µM)	0.2 µg/mL (≈ 0.361 µM)	0.2 µg/mL (≈ 0.361 µM)	–	–	–	–	–	–	–	–	–
NC(=O)C1CC[N+](C/C=C/C2=C(C(=O)[O-])N3C(=O)[C@@H](NC(=O)/C(=N\OCF)c4nsc(N)n4)[C@H]3SC2)(CCO)CC1 (single isomer, unassigned) [Example 2-2, 7β-[2-(5-Amino-1,2,4-thiadiazol-3-yl)-(Z)-2-fluoromethoxyiminoacetamido]-3-[(E)-3-[1-(2-hydroxyethyl)-4-carbamoyl-1-piperidinio]-1-propen-1-yl]-3-cephem-4-carboxylate]	≤ 0.025 µg/mL	–	–	1.56 µg/mL (≈ 2.55 µM)	–	–	≤ 0.025 µg/mL	≤ 0.025 µg/mL	≤ 0.025 µg/mL	0.4 µg/mL (≈ 0.653 µM)	–	–	–	–	–
CN(C)CCC[N+](C)(C)C/C=C/C1=C(C(=O)[O-])N2C(=O)[C@@H](NC(=O)/C(=N\OCF)c3nsc(N)n3)[C@H]2SC1 [Example 77]	0.2 µg/mL (≈ 0.35 µM)	0.2 µg/mL (≈ 0.35 µM)	0.4 µg/mL (≈ 0.701 µM)	3.13 µg/mL (≈ 5.48 µM)	0.2 µg/mL (≈ 0.35 µM)	0.4 µg/mL (≈ 0.701 µM)	–	–	–	–	–	–	–	–	–
CC(=O)NCC[N+](C/C=C/C1=C(C(=O)[O-])N2C(=O)[C@@H](NC(=O)/C(=N\OCF)c3nsc(N)n3)[C@H]2SC1)(CCO)CCO [Example 51]	0.05 µg/mL (≈ 0.0793 µM)	0.05 µg/mL (≈ 0.0793 µM)	0.05 µg/mL (≈ 0.0793 µM)	1.56 µg/mL (≈ 2.47 µM)	0.05 µg/mL (≈ 0.0793 µM)	0.4 µg/mL (≈ 0.634 µM)	–	–	–	–	–	–	–	–	–
CNC(=O)[C@H](C)[N+](C)(C)C/C=C/C1=C(C(=O)[O-])N2C(=O)[C@@H](NC(=O)/C(=N\OCF)c3nsc(N)n3)[C@H]2SC1 [Example 58]	≤ 0.025 µg/mL	0.05 µg/mL (≈ 0.0876 µM)	0.05 µg/mL (≈ 0.0876 µM)	1.56 µg/mL (≈ 2.73 µM)	0.05 µg/mL (≈ 0.0876 µM)	0.2 µg/mL (≈ 0.35 µM)	–	–	–	–	–	–	–	–	–
NC(=O)NCC[N+]1(C/C=C/C2=C(C(=O)[O-])N3C(=O)[C@@H](NC(=O)/C(=N\OCF)c4nsc(N)n4)[C@H]3SC2)CCOCC1 [Example 36]	0.05 µg/mL (≈ 0.0815 µM)	≤ 0.025 µg/mL	0.05 µg/mL (≈ 0.0815 µM)	1.56 µg/mL (≈ 2.54 µM)	0.1 µg/mL (≈ 0.163 µM)	0.2 µg/mL (≈ 0.326 µM)	–	–	–	–	–	–	–	–	–
C[N+]1(C/C=C/C2=C(C(=O)[O-])N3C(=O)[C@@H](NC(=O)/C(=N\OCF)c4nsc(N)n4)[C@H]3SC2)CCN(C=O)CC1 [Example 24]	≤ 0.025 µg/mL	≤ 0.025 µg/mL	≤ 0.025 µg/mL	1.56 µg/mL (≈ 2.74 µM)	≤ 0.025 µg/mL	0.2 µg/mL (≈ 0.352 µM)	–	–	–	–	–	–	–	–	–
C[N+](C/C=C/C1=C(C(=O)[O-])N2C(=O)[C@@H](NC(=O)/C(=N\OCF)c3nsc(N)n3)[C@H]2SC1)(CCO)CCO [Example 144, 7β-[2-(5-Amino-1,2,4-thiadiazol-3-yl)-(Z)-2-fluoromethoxyiminoacetamido]-3-[(E)-3-[bis(2-hydroxyethyl)methylammonio]-1-propen-1-yl]-3-cephem-4-carboxylate]	≤ 0.025 µg/mL	0.05 µg/mL (≈ 0.0893 µM)	≤ 0.025 µg/mL	0.8 µg/mL (≈ 1.43 µM)	0.1 µg/mL (≈ 0.179 µM)	0.2 µg/mL (≈ 0.357 µM)	–	–	–	–	–	–	–	–	–
Nc1nc(/C(=N/OCF)C(=O)N[C@@H]2C(=O)N3C(C(=O)[O-])=C(/C=C/C[N+]4(CCO)C[C@H](O)C[C@H]4CO)CS[C@H]23)ns1 (single isomer, unassigned) [Example 7-1, 7β-[2-(5-Amino-1,2,4-thiadiazol-3-yl)-(Z)-2-fluoromethoxyiminoacetamido]-3-[(E)-3-[4R-hydroxy-1-(2-hydroxyethyl)-2S-hydroxymethyl-1-pyrrolidinio]-1-propen-1-yl]-3-cephem-4-carboxylate]	≤ 0.025 µg/mL	≤ 0.025 µg/mL	≤ 0.025 µg/mL	0.8 µg/mL (≈ 1.33 µM)	≤ 0.025 µg/mL	0.2 µg/mL (≈ 0.332 µM)	–	–	–	–	–	–	–	–	–
Nc1nc(/C(=N/OCF)C(=O)N[C@@H]2C(=O)N3C(C(=O)[O-])=C(/C=C/C[n+]4ccc(C(=O)NCCO)cc4)CS[C@H]23)ns1 [Example 84]	0.05 µg/mL (≈ 0.0824 µM)	≤ 0.025 µg/mL	0.05 µg/mL (≈ 0.0824 µM)	1.56 µg/mL (≈ 2.57 µM)	0.1 µg/mL (≈ 0.165 µM)	0.4 µg/mL (≈ 0.659 µM)	–	–	–	–	–	–	–	–	–
Cc1c(CCO)sc[n+]1C/C=C/C1=C(C(=O)[O-])N2C(=O)[C@@H](NC(=O)/C(=N\OCF)c3nsc(N)n3)[C@H]2SC1 [Example 81]	≤ 0.025 µg/mL	≤ 0.025 µg/mL	≤ 0.025 µg/mL	1.56 µg/mL (≈ 2.67 µM)	≤ 0.025 µg/mL	0.2 µg/mL (≈ 0.343 µM)	–	–	–	–	–	–	–	–	–
C[N+]1(C/C=C/C2=C(C(=O)[O-])N3C(=O)[C@@H](NC(=O)/C(=N\OCF)c4nsc(N)n4)[C@H]3SC2)CCC(O)CC1 (stereo partly drawn) [Example 90]	0.05 µg/mL (≈ 0.09 µM)	≤ 0.025 µg/mL	0.05 µg/mL (≈ 0.09 µM)	0.8 µg/mL (≈ 1.44 µM)	≤ 0.025 µg/mL	0.2 µg/mL (≈ 0.36 µM)	–	–	–	–	–	–	–	–	–
CN1CCC[N+]1(C)C/C=C/C1=C(C(=O)[O-])N2C(=O)[C@@H](NC(=O)/C(=N\OCF)c3nsc(N)n3)[C@H]2SC1 (single isomer, unassigned) [Example 122-B, 7β-[2-(5-Amino-1,2,4-thiadiazol-3-yl)-(Z)-2-fluoromethoxyiminoacetamido]-3-[(E)-3-(1,2-dimethyl-1-pyrazolidinio)-1-propen-1-yl]-3-cephem-4-carboxylate]	–	–	–	–	–	–	≤ 0.025 µg/mL	≤ 0.025 µg/mL	0.05 µg/mL (≈ 0.0925 µM)	0.1 µg/mL (≈ 0.185 µM)	≤ 0.025 µg/mL	0.8 µg/mL (≈ 1.48 µM)	–	–	–
C[N+](C)(C/C=C/C1=C(C(=O)[O-])N2C(=O)[C@@H](NC(=O)/C(=N\OCF)c3nsc(N)n3)[C@H]2SC1)[C@H](CO)C(=O)NCO [Example 63]	≤ 0.025 µg/mL	0.05 µg/mL (≈ 0.083 µM)	≤ 0.025 µg/mL	0.8 µg/mL (≈ 1.33 µM)	≤ 0.025 µg/mL	0.4 µg/mL (≈ 0.664 µM)	–	–	–	–	–	–	–	–	–
CC(C)(O/N=C(\C(=O)N[C@@H]1C(=O)N2C(C(=O)[O-])=C(C[n+]3ccccc3)CS[C@H]12)c1csc(N)n1)C(=O)O [CAZ, Cefatazidime, reference compound]	0.2 µg/mL (≈ 0.366 µM)	0.1 µg/mL (≈ 0.183 µM)	0.1 µg/mL (≈ 0.183 µM)	–	–	–	–	–	–	–	–	–	1.56 µg/mL (≈ 2.85 µM)	0.2 µg/mL (≈ 0.366 µM)	6.25 µg/mL (≈ 11.4 µM)
CN(C)CCn1nnnc1SCC1=C(C(=O)O)N2C(=O)[C@@H](NC(=O)Cc3csc(N)n3)[C@H]2SC1 [CTM, Cefotiam, reference compound]	0.1 µg/mL (≈ 0.19 µM)	0.1 µg/mL (≈ 0.19 µM)	0.2 µg/mL (≈ 0.38 µM)	> 100 µg/mL	6.25 µg/mL (≈ 11.9 µM)	0.2 µg/mL (≈ 0.38 µM)	–	–	–	–	–	–	–	–	–
Nc1nc(/C(=N/OC(F)F)C(=O)N[C@@H]2C(=O)N3C(C(=O)[O-])=C(/C=C/C[N+]45CCN(CC4)CC5)CS[C@H]23)ns1 [Example 116]	≤ 0.025 µg/mL	≤ 0.025 µg/mL	≤ 0.025 µg/mL	1.56 µg/mL (≈ 2.73 µM)	≤ 0.025 µg/mL	0.2 µg/mL (≈ 0.351 µM)	–	–	–	–	–	–	–	–	–
C[N+](C)(C/C=C/C1=C(C(=O)[O-])N2C(=O)[C@@H](NC(=O)/C(=N\OC(F)F)c3nsc(N)n3)[C@H]2SC1)CC(N)=O [Example 114, 7β-[2-(5-Amino-1,2,4-thiadiazol-3-yl)-(Z)-2-difluoromethoxyiminoacetamido]-3-[(E)-3-(dimethylcarbamoylmethylammonio)-1-propen-1-yl]-3-cephem-4-carboxylate]	0.05 µg/mL (≈ 0.0892 µM)	≤ 0.025 µg/mL	≤ 0.025 µg/mL	0.8 µg/mL (≈ 1.43 µM)	0.05 µg/mL (≈ 0.0892 µM)	0.2 µg/mL (≈ 0.357 µM)	–	–	–	–	–	–	–	–	–
